#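 Five compound concentrations were applied to cells in 96-well plates for 48 hours; endpoints were derived by simple linear interpolation of the resulting dose-response curve. Abbreviation: GI50, concentration required for 50% inhibition of growth. TGI is the concentration that stops growth completely.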
# What was measured:
# Assay in all cases: inhibition of tumour cell growth, NCI panel, 48 h
# [1] = tested on: COLO 205 colon
# [2] = tested on: DU-145 prostate
# [3] = tested on: NCI-H522 lung
# [4] = tested on: MALME-3M melanoma
# [5] = tested on: HCC-2998 colon
# [6] = tested on: SNB-19 CNS
# [7] = tested on: UACC-257 melanoma
# [8] = tested on: T-47D breast
# [9] = tested on: SW-620 colon
# [10] = tested on: SF-539 CNS
# [11] = tested on: SK-MEL-5 melanoma
# [12] = tested on: NCI-H226 lung
# [13] = tested on: HT29 colon
# [14] = tested on: UO-31 renal
# [15] = tested on: SN12C renal
# [16] = tested on: HS 578T breast
# [17] = tested on: U251 CNS
# [18] = tested on: KM12 colon
# [19] = tested on: SK-OV-3 ovarian
# [20] = tested on: MCF7 breast
# [21] = tested on: SK-MEL-28 melanoma
# [22] = tested on: HCT-15 colon
# [23] = tested on: NCI/ADR-RES ovarian
# [24] = tested on: A498 renal
# [25] = tested on: SF-295 CNS
# [26] = tested on: EKVX NSCLC
# [27] = tested on: CAKI-1 renal
# [28] = tested on: NCI-H23 lung
# [29] = tested on: SF-268 CNS
# [30] = tested on: SNB-75 CNS
# [31] = tested on: OVCAR-4 ovarian
# [32] = tested on: K-562 leukemia
# [33] = tested on: M14 melanoma
# [34] = tested on: NCI-H460 lung
# [35] = tested on: HOP-92 NSCLC
# [36] = tested on: HL-60(TB) leukemia
# [37] = tested on: OVCAR-8 ovarian
# [38] = tested on: PC-3 prostate
# [39] = tested on: HCT-116 colon
# [40] = tested on: CCRF-CEM leukemia
# [41] = tested on: 786-0 renal
# [42] = tested on: A549 NSCLC
# [43] = tested on: LOX IMVI melanoma
# [44] = tested on: IGROV1 ovarian
# [45] = tested on: HOP-62 NSCLC
# [46] = tested on: MDA-MB-231 breast
# [47] = tested on: RPMI-8226 leukemia
# [48] = tested on: BT-549 breast
# [49] = tested on: TK-10 renal
# [50] = tested on: MOLT-4 leukemia
# [51] = tested on: MDA-MB-435
# [52] = tested on: OVCAR-5 ovarian
# [53] = tested on: SR leukemia
# [54] = tested on: UACC-62 melanoma
# [55] = tested on: SK-MEL-2 melanoma
# [56] = tested on: RXF 393 renal
# [57] = tested on: ACHN renal
smiles,measurement,setting,value
C#C[C@]1(O)CC[C@H]2[C@@H]3CC=C4c5sc(Nc6ccc(OC)nc6)nc5CC[C@]4(C)[C@H]3CC[C@@]21C,GI50,[1],1.78 µM
same,TGI,[1],3.37 µM
same,GI50,[2],2.01 µM
same,TGI,[2],10 µM
same,GI50,[3],1.43 µM
same,TGI,[3],3.02 µM
same,GI50,[4],1.54 µM
same,TGI,[4],3.21 µM
same,GI50,[5],1.7 µM
same,TGI,[5],3.81 µM
same,GI50,[6],1.36 µM
same,TGI,[6],68.8 µM
same,GI50,[7],1.55 µM
same,TGI,[7],3.18 µM
same,GI50,[8],1.47 µM
same,TGI,[8],3.78 µM
same,GI50,[9],1.49 µM
same,TGI,[9],3.4 µM
same,GI50,[10],0.366 µM
same,TGI,[10],2.15 µM
same,GI50,[11],1.93 µM
same,TGI,[11],4.54 µM
same,GI50,[12],2.02 µM
same,TGI,[12],13.4 µM
same,GI50,[13],1.31 µM
same,TGI,[13],3.24 µM
same,GI50,[14],0.83 µM
same,TGI,[14],2.13 µM
same,GI50,[15],2.22 µM
same,TGI,[15],7.61 µM
same,GI50,[16],0.231 µM
same,TGI,[16],1.61 µM
same,GI50,[17],0.654 µM
same,TGI,[17],2.81 µM
same,GI50,[18],2.1 µM
same,TGI,[18],12.2 µM
same,GI50,[19],1.26 µM
same,TGI,[19],6.16 µM
same,GI50,[20],0.789 µM
same,TGI,[20],2.54 µM
same,GI50,[21],1.5 µM
same,TGI,[21],3.72 µM
same,GI50,[22],1.07 µM
same,TGI,[22],8.28 µM
same,GI50,[23],2.36 µM
same,TGI,[23],> 100 µM
same,GI50,[24],0.769 µM
same,TGI,[24],5.88 µM
same,GI50,[25],0.302 µM
same,TGI,[25],1.23 µM
same,GI50,[26],1.6 µM
same,TGI,[26],21.3 µM
same,GI50,[27],1.28 µM
same,TGI,[27],3.76 µM
same,GI50,[28],1.65 µM
same,TGI,[28],4.47 µM
same,GI50,[29],2.01 µM
same,TGI,[29],17.4 µM
same,GI50,[30],0.37 µM
same,TGI,[30],3.9 µM
same,GI50,[31],3.51 µM
same,TGI,[31],> 100 µM
same,GI50,[32],0.907 µM
same,TGI,[32],12.8 µM
same,GI50,[33],1.47 µM
same,TGI,[33],3.47 µM
same,GI50,[34],1.92 µM
same,TGI,[34],5.89 µM
same,GI50,[35],1.03 µM
same,TGI,[35],2.95 µM
same,GI50,[36],0.493 µM
same,TGI,[36],3.71 µM
same,GI50,[37],1.8 µM
same,TGI,[37],5.46 µM
same,GI50,[38],0.739 µM
same,TGI,[38],4.92 µM
same,GI50,[39],1.13 µM
same,TGI,[39],2.49 µM
same,GI50,[40],0.805 µM
same,TGI,[40],6.24 µM
same,GI50,[41],0.413 µM
same,TGI,[41],1.97 µM
same,GI50,[42],2.2 µM
same,TGI,[42],18 µM
same,GI50,[43],1.15 µM
same,TGI,[43],2.79 µM
same,GI50,[44],2.04 µM
same,TGI,[44],7.4 µM
same,GI50,[45],1.66 µM
same,TGI,[45],8.8 µM
same,GI50,[46],1.71 µM
same,TGI,[46],9.34 µM
same,GI50,[47],0.222 µM
same,TGI,[47],1.19 µM
same,GI50,[48],0.944 µM
same,TGI,[48],2.89 µM
same,GI50,[49],2.28 µM
same,TGI,[49],4.81 µM
same,GI50,[50],0.39 µM
same,TGI,[50],2.41 µM
same,GI50,[51],1.84 µM
same,TGI,[51],4.9 µM
same,GI50,[52],2.49 µM
same,TGI,[52],15.1 µM
Cc1ccccc1N1CCN(C2=C(Cl)C(=O)c3ncccc3C2=O)CC1,GI50,[1],3.14 µM
same,TGI,[1],10.8 µM
same,GI50,[2],3.8 µM
same,TGI,[2],> 100 µM
same,GI50,[3],1.68 µM
same,TGI,[3],3.31 µM
same,GI50,[4],2.03 µM
same,TGI,[4],4.64 µM
same,GI50,[5],3.33 µM
same,TGI,[5],13.8 µM
same,GI50,[6],30.3 µM
same,TGI,[6],> 100 µM
same,GI50,[7],1.98 µM
same,TGI,[7],4.25 µM
same,GI50,[8],1.9 µM
same,TGI,[8],4.35 µM
same,GI50,[9],1.48 µM
same,TGI,[9],3.45 µM
same,GI50,[10],1.8 µM
same,TGI,[10],3.32 µM
same,GI50,[11],4.98 µM
same,TGI,[11],17.7 µM
same,GI50,[12],20.8 µM
same,TGI,[12],> 100 µM
same,GI50,[53],1 µM
same,TGI,[53],5 µM
same,GI50,[54],3.92 µM
same,TGI,[54],42.2 µM
same,GI50,[13],5.33 µM
same,TGI,[13],> 100 µM
same,GI50,[55],2.75 µM
same,TGI,[55],14.8 µM
same,GI50,[14],1.49 µM
same,TGI,[14],2.86 µM
same,GI50,[15],3.56 µM
same,TGI,[15],78.9 µM
same,GI50,[16],4.94 µM
same,TGI,[16],85.3 µM
same,GI50,[56],1.74 µM
same,TGI,[56],3.17 µM
same,GI50,[17],6 µM
same,TGI,[17],25.6 µM
same,GI50,[18],48.1 µM
same,TGI,[18],> 100 µM
same,GI50,[19],37.2 µM
same,TGI,[19],> 100 µM
same,GI50,[20],1.46 µM
same,TGI,[20],3.22 µM
same,GI50,[21],2.19 µM
same,TGI,[21],5.06 µM
same,GI50,[22],1.69 µM
same,TGI,[22],4.52 µM
same,GI50,[23],2.51 µM
same,TGI,[23],7.18 µM
same,GI50,[24],> 100 µM
same,TGI,[24],> 100 µM
same,GI50,[25],14.7 µM
same,TGI,[25],> 100 µM
same,GI50,[26],1.68 µM
same,TGI,[26],3.1 µM
same,GI50,[27],2.78 µM
same,TGI,[27],> 100 µM
same,GI50,[29],23.7 µM
same,TGI,[29],> 100 µM
same,GI50,[30],17.4 µM
same,TGI,[30],> 100 µM
same,GI50,[31],1.75 µM
same,TGI,[31],3.23 µM
same,GI50,[32],1.28 µM
same,TGI,[32],4.08 µM
same,GI50,[33],2.2 µM
same,TGI,[33],6.45 µM
same,GI50,[34],6.68 µM
same,TGI,[34],46.5 µM
same,GI50,[35],1.36 µM
same,TGI,[35],2.7 µM
same,GI50,[36],1.61 µM
same,TGI,[36],4.05 µM
same,GI50,[37],1.91 µM
same,TGI,[37],4.35 µM
same,GI50,[38],1.63 µM
same,TGI,[38],3.7 µM
same,GI50,[39],1.56 µM
same,TGI,[39],2.89 µM
same,GI50,[40],1.73 µM
same,TGI,[40],5.19 µM
same,GI50,[41],1.71 µM
same,TGI,[41],3.09 µM
same,GI50,[42],23.5 µM
same,TGI,[42],> 100 µM
same,GI50,[43],1.65 µM
same,TGI,[43],3.21 µM
same,GI50,[57],1.85 µM
same,TGI,[57],3.89 µM
same,GI50,[44],1.97 µM
same,TGI,[44],4.09 µM
same,GI50,[45],35.1 µM
same,TGI,[45],> 100 µM
same,GI50,[46],1.71 µM
same,TGI,[46],3.27 µM
same,GI50,[47],2 µM
same,TGI,[47],5.22 µM
same,GI50,[48],1.96 µM
same,TGI,[48],3.41 µM
same,GI50,[49],4.76 µM
same,TGI,[49],> 100 µM
same,GI50,[50],1.78 µM
same,TGI,[50],4.95 µM
same,GI50,[52],6.89 µM
same,TGI,[52],21.2 µM
